{"source": "patent US8959984B2", "about": "“Proteome-wide quantification of small molecule binding to cellular target proteins” (priority 2007, dated 2015)", "key": {"RPL7": {"target": "RPL7 (Homo sapiens, UniProt P18124)", "test": "binding to AX14596 beads (HeLa lysate, SILAC MS)", "design": "endogenous in cells; host or cells: HeLa S3", "procedure": "(§1) Differentially SILAC-encoded cell lysates were either incubated with the inhibitor beads displaying immobilized AX14596 or control resin devoid of ligand. In parallel, the supernatant from the first binding step was subjected to a second incubation with the AX14596 resin (FIG. 4). The resulting three elution fractions were combined, resolved by gel electrophoresis, proteolytically digested and the relative abundance of the retained proteins quantified. Proteins showing considerable binding to the control resin were identified as non-specific interactors and therefore not considered further. […] These target-specific ratios were similar in “label switch” experiments (FIGS. 6a and 6c). The binding equilibrium was determined in parallel control SILAC experiments as well as the excess of the immobilized compound over its cellular targets, the excess preferably being a molar excess (FIG. 7 and FIG. 8).\n(§2) Cysteine carbamidomethylation was set as a fixed modification and N-acetyl protein and oxidized methionine were allowed as variable modifications. Spectra that were determined to result from heavy labeled peptides in the pre-search detection of SILAC partners by MaxQuant were searched with the fixed modifications Lys^4, Lys^8, Arg^6 and Arg^10, whereas MS/MS spectra for which no SILAC state could be assigned before database searching were searched with Lys^4, Lys^8, Arg^6 and Arg^10 as variable modifications. The mass tolerance was set to 5 ppm for monoisotopic precursor ions and to 0.5 Da for MS/MS peaks. The minimum peptide length was set to 6 amino acids and up to three missed cleavages and three isotopically labeled amino acids were permitted per peptide. The accepted false discovery rate (FDR) was 1% for the proteins and peptides. The cut-off for the posterior error probability (PEP) of peptides was set to 10%. Peptide PEPs were determined by generating Mascot score and peptide-length-dependent histograms for both the forward and the reverse hits and then deriving the probability of a false identification for a given top-scoring peptide using Bayes' theorem. The PEPs of peptides belonging to the same proteins were then multiplied. Each peptide sequence was considered only once with the lowest PEP determined in case of multiple sequencing of the same isotopic pattern or of peptide species with different SILAC, charge or modification states. Proteins were then sorted according to their products of their peptide PEPs and included until a FDR of 1% was reached according to the fraction of reverse proteins contained in the protein list. In addition to the FDR threshold applied for protein identification, proteins were only included when they were identified with at least two peptides (of which one was required to be unique for the protein) and quantified if at least on quantifiable SILAC pair was associated with them. Outliers were not removed as protein ratios were calculated as the median instead of the average of all peptide ratios. For peptides shared among different identified proteins, SILAC ratios were only considered for the ratio of the protein identified with the highest number of unique peptides. Protein ratios for the different in vitro association experiments were corrected for the initial SILAC pooling ratio, which was determined from the median of protein ratios in pooled SILAC-encoded cell extracts."}, "MNK1 (MKNK1)": {"target": "MNK1 (MKNK1) (Homo sapiens, UniProt Q9BUB5)", "sequence (Q9BUB5 whole entry)": "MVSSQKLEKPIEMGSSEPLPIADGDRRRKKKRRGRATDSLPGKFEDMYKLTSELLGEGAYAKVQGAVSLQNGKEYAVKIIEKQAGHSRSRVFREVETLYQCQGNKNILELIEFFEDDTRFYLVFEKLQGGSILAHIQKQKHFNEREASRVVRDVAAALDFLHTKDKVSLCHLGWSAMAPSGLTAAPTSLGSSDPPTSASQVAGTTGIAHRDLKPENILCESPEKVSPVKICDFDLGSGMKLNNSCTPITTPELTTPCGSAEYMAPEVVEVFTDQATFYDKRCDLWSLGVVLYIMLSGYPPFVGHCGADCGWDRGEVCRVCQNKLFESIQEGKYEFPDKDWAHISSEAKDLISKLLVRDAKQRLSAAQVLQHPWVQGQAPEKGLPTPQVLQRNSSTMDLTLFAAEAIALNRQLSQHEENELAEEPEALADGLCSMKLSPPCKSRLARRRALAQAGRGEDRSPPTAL", "test": "binding to AX14596 beads (HeLa lysate, SILAC MS)", "design": "endogenous in cells; host or cells: HeLa S3", "procedure": "as §1, §2"}, "RPL7A": {"target": "RPL7A (Homo sapiens, UniProt P62424)", "test": "binding to AX14596 beads (HeLa lysate, SILAC MS)", "design": "endogenous in cells; host or cells: HeLa S3", "procedure": "as §1, §2"}, "NAMPT": {"target": "NAMPT (Homo sapiens, UniProt P43490)", "sequence (P43490 whole entry)": "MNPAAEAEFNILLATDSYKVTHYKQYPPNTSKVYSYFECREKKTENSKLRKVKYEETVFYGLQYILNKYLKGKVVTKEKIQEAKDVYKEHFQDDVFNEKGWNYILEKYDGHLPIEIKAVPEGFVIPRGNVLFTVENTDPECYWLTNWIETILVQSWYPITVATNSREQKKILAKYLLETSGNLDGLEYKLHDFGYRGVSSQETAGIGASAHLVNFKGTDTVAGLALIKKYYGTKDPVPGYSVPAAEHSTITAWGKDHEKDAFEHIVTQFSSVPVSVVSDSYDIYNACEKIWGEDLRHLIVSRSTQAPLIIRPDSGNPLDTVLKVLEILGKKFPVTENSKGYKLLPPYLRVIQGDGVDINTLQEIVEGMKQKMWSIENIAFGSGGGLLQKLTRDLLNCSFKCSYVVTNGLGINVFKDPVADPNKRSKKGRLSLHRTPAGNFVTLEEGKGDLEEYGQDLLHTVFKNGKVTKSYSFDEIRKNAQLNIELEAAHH", "test": "binding to AX14596 beads (HeLa lysate, SILAC MS)", "design": "endogenous in cells; host or cells: HeLa S3", "procedure": "as §1, §2"}, "SNRPG": {"target": "SNRPG (Homo sapiens, UniProt P62308)", "sequence (P62306 whole entry)": "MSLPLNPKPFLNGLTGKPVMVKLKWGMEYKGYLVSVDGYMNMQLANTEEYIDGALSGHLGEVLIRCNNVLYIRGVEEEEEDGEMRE", "sequence (P62304 whole entry, further chain)": "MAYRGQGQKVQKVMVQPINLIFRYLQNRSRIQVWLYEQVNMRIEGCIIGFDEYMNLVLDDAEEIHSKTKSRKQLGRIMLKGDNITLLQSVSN", "sequence (P62308 whole entry)": "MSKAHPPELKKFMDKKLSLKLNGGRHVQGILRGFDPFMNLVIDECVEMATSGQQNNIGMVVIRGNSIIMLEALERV", "test": "binding to AX14596 beads (HeLa lysate, SILAC MS)", "design": "endogenous in cells; host or cells: HeLa S3", "procedure": "as §1, §2"}, "CaMK2d (CAMK2D)": {"target": "CaMK2d (CAMK2D) (Homo sapiens, UniProt Q13557)", "sequence (Q13557 whole entry)": "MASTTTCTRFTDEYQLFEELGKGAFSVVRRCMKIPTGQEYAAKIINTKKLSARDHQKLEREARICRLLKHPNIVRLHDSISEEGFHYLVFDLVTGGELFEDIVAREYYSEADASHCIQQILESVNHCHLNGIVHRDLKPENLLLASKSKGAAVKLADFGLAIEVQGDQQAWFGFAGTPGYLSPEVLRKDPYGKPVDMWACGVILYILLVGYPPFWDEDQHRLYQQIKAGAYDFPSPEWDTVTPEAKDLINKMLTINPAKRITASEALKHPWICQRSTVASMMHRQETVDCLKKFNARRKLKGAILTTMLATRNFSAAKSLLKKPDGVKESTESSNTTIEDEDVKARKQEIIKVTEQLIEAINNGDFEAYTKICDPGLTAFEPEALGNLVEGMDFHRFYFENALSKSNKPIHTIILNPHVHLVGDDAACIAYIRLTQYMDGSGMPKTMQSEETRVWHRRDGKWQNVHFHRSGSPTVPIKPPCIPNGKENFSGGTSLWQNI", "test": "binding to AX14596 beads (HeLa lysate, SILAC MS)", "design": "endogenous in cells; host or cells: HeLa S3", "procedure": "as §1, §2"}, "RPL27A": {"target": "RPL27A (Homo sapiens, UniProt P46776)", "test": "binding to AX14596 beads (HeLa lysate, SILAC MS)", "design": "endogenous in cells; host or cells: HeLa S3", "procedure": "as §1, §2"}, "SPR": {"target": "SPR (Homo sapiens, UniProt P35270)", "sequence (P35270 whole entry)": "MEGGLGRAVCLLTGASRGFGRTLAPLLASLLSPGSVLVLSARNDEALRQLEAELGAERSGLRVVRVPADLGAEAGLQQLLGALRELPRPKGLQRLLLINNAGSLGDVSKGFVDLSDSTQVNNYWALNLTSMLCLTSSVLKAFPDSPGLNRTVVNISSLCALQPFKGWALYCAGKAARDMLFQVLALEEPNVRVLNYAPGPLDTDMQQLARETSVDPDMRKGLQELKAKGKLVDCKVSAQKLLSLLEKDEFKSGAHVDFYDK", "test": "binding to AX14596 beads (HeLa lysate, SILAC MS)", "design": "endogenous in cells; host or cells: HeLa S3", "procedure": "as §1, §2"}, "NUDT12": {"target": "NUDT12 (Homo sapiens, UniProt Q9BQG2)", "sequence (Q9BQG2 whole entry)": "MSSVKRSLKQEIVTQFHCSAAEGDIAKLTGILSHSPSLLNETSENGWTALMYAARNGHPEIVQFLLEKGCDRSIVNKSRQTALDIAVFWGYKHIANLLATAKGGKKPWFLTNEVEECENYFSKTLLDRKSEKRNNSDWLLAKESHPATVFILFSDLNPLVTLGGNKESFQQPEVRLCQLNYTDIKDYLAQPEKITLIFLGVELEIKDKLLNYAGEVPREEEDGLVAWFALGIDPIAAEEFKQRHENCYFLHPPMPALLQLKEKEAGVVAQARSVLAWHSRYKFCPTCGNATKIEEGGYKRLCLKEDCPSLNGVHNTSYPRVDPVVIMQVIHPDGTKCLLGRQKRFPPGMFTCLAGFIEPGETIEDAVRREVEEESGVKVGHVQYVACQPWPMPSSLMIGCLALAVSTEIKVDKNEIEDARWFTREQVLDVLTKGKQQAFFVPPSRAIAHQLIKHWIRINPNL", "test": "binding to AX14596 beads (HeLa lysate, SILAC MS)", "design": "endogenous in cells; host or cells: HeLa S3", "procedure": "as §1, §2"}, "CK1e (CSNK1E) [1]": {"target": "T1, CK1e (CSNK1E) (Homo sapiens, UniProt P49674)", "T1 sequence (P49674 whole entry)": "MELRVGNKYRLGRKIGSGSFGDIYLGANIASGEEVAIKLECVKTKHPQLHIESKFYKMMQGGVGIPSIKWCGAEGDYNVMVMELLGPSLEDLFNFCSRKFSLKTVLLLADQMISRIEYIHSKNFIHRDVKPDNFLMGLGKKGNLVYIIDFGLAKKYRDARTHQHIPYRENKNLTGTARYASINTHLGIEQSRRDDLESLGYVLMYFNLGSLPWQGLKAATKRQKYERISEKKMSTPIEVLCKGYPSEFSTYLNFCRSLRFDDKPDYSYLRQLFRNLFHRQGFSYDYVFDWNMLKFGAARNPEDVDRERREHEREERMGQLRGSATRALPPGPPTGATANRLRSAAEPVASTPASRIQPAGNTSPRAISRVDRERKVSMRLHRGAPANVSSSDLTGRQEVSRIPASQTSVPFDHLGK", "test": "binding to AX14596 beads (HeLa lysate, SILAC MS)", "design": "endogenous in cells; host or cells: HeLa S3", "procedure": "as §1, §2"}, "CK1e (CSNK1E) [2]": {"target": "T1, CK1e (CSNK1E)"}}, "data": [{"compound": "COc1cc2ncnc(Nc3ccc(F)c(Cl)c3)c2cc1OCCCN", "note": "[AX14596]", "values": [{"measurement": "Ki", "setting": "RPL7", "value": 2.31, "unit": "mM"}, {"measurement": "r (3 mg/1 mg lysate)", "setting": "RPL7", "value": 1.82}, {"measurement": "rAVERAGE (2. inc/1. inc)", "setting": "RPL7", "value": 0.96}, {"measurement": "rAVERAGE (control/1. inc)", "setting": "RPL7", "value": 0.19}, {"measurement": "Ki", "setting": "MNK1 (MKNK1)", "value": 922, "unit": "µM"}, {"measurement": "r (3 mg/1 mg lysate)", "setting": "MNK1 (MKNK1)", "value": 2.94}, {"measurement": "r (5 h/2.5 h inc. time)", "setting": "MNK1 (MKNK1)", "value": 1.05}, {"measurement": "rAVERAGE (2. inc/1. inc)", "setting": "MNK1 (MKNK1)", "value": 0.90}, {"measurement": "rAVERAGE (control/1. inc)", "setting": "MNK1 (MKNK1)", "value": 0.04}, {"measurement": "Ki", "setting": "RPL7A", "value": 2.1, "unit": "mM"}, {"measurement": "r (3 mg/1 mg lysate)", "setting": "RPL7A", "value": 5.23}, {"measurement": "rAVERAGE (2. inc/1. inc)", "setting": "RPL7A", "value": 0.95}, {"measurement": "rAVERAGE (control/1. inc)", "setting": "RPL7A", "value": 0.17}, {"measurement": "Ki", "setting": "NAMPT", "value": 41.2, "unit": "µM"}, {"measurement": "r (3 mg/1 mg lysate)", "setting": "NAMPT", "value": 7.48}, {"measurement": "r (5 h/2.5 h inc. time)", "setting": "NAMPT", "value": 0.39}, {"measurement": "rAVERAGE (2. inc/1. inc)", "setting": "NAMPT", "value": 0.29}, {"measurement": "rAVERAGE (control/1. inc)", "setting": "NAMPT", "value": 0.04}, {"measurement": "Ki", "setting": "SNRPG", "value": 87.6, "unit": "µM"}, {"measurement": "r (3 mg/1 mg lysate)", "setting": "SNRPG", "value": 2.54}, {"measurement": "rAVERAGE (2. inc/1. inc)", "setting": "SNRPG", "value": 0.47}, {"measurement": "rAVERAGE (control/1. inc)", "setting": "SNRPG", "value": 0.16}, {"measurement": "Ki", "setting": "CaMK2d (CAMK2D)", "value": 87.2, "unit": "µM"}, {"measurement": "r (3 mg/1 mg lysate)", "setting": "CaMK2d (CAMK2D)", "value": 2.39}, {"measurement": "r (5 h/2.5 h inc. time)", "setting": "CaMK2d (CAMK2D)", "value": 1.13}, {"measurement": "rAVERAGE (2. inc/1. inc)", "setting": "CaMK2d (CAMK2D)", "value": 0.47}, {"measurement": "rAVERAGE (control/1. inc)", "setting": "CaMK2d (CAMK2D)", "value": 0.07}, {"measurement": "Ki", "setting": "RPL27A", "value": 2.93, "unit": "mM"}, {"measurement": "r (3 mg/1 mg lysate)", "setting": "RPL27A", "value": 1.75}, {"measurement": "r (5 h/2.5 h inc. time)", "setting": "RPL27A", "value": 1.12}, {"measurement": "rAVERAGE (2. inc/1. inc)", "setting": "RPL27A", "value": 0.97}, {"measurement": "rAVERAGE (control/1. inc)", "setting": "RPL27A", "value": 0.06}, {"measurement": "Ki", "setting": "SPR", "value": 1.86, "unit": "mM"}, {"measurement": "r (3 mg/1 mg lysate)", "setting": "SPR", "value": 2.91}, {"measurement": "r (5 h/2.5 h inc. time)", "setting": "SPR", "value": 2.43}, {"measurement": "rAVERAGE (2. inc/1. inc)", "setting": "SPR", "value": 0.95}, {"measurement": "rAVERAGE (control/1. inc)", "setting": "SPR", "value": 0.02}, {"measurement": "Ki", "setting": "NUDT12", "value": 16.1, "unit": "µM"}, {"measurement": "r (3 mg/1 mg lysate)", "setting": "NUDT12", "value": 2.24}, {"measurement": "r (5 h/2.5 h inc. time)", "setting": "NUDT12", "value": 0.91}, {"measurement": "rAVERAGE (2. inc/1. inc)", "setting": "NUDT12", "value": 0.14}, {"measurement": "rAVERAGE (control/1. inc)", "setting": "NUDT12", "value": 0.04}, {"measurement": "Ki", "setting": "CK1e (CSNK1E) [1]", "value": 4.08, "unit": "mM"}, {"measurement": "r (3 mg/1 mg lysate)", "setting": "CK1e (CSNK1E) [1]", "value": 2.87}, {"measurement": "r (5 h/2.5 h inc. time)", "setting": "CK1e (CSNK1E) [1]", "value": 1.23}, {"measurement": "rAVERAGE (2. inc/1. inc)", "setting": "CK1e (CSNK1E) [1]", "value": 0.98}, {"measurement": "rAVERAGE (control/1. inc)", "setting": "CK1e (CSNK1E) [1]", "value": 0.09}]}, {"compound": "COc1cc2ncnc(Nc3ccc(F)c(Cl)c3)c2cc1OCCCN1CCOCC1", "note": "[gefitinib]", "values": [{"measurement": "rAVERAGE (10 nM/0 nM Gef.)", "setting": "CK1e (CSNK1E) [2]", "value": 0.80}, {"measurement": "rAVERAGE (100 nM/0 nM Gef.)", "setting": "CK1e (CSNK1E) [2]", "value": 1.00}, {"measurement": "rAVERAGE (1000 nM/0 nM Gef.)", "setting": "CK1e (CSNK1E) [2]", "value": 0.84}, {"measurement": "rAVERAGE (10000 nM/0 nM Gef.)", "setting": "CK1e (CSNK1E) [2]", "value": 0.59}]}]}
